In general, EC50 refers to the concentration needed to bring the measured effect to its halfway point. A lower EC50 goes with a more potent agent. The IC50 is the concentration needed to halve the response being measured.

Results on eight molecules are retold here after patent US20240246964A1 (Arbutus Biopharma Corporation, priority 2021, published 2024).

In one assay the target is human PD-L1 (Homo sapiens (Human), UniProt Q9NZQ7). Put plainly: T cell activation luciferase reporter cell culture system (T Cell Activation Assay). Type of assay: cell-based. The settings on record: luciferase reporter assay; PD-L1 aAPC/CHO-K1 cells with PD-1 effector Jurkat T cells. A general note: Reporter assays use an easily measured gene product as a stand-in for the process of interest.
Chain of human PD-L1 (Q9NZQ7 19-290): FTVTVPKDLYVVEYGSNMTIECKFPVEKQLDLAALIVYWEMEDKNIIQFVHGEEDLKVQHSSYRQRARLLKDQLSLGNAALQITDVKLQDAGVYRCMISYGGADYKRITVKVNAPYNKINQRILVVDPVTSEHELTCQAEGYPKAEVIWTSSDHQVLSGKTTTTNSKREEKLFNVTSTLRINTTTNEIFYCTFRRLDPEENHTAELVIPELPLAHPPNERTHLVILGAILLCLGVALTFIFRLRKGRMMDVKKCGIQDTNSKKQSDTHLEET

For assay [1], the target named is PD-L1 His protein / PD-1 Fc protein (Homo sapiens (Human), UniProt Q9NZQ7). Put plainly: HTRF Assay (PD-1/PD-L1 interaction). It counts as binding. The following applies: PD-L1 His 6 nM, PD-1 Fc 6 nM. A general note: In TR-FRET formats the signal depends on donor and acceptor labels being close together.
Chain of PD-L1 His protein / PD-1 Fc protein (Q9NZQ7 19-238): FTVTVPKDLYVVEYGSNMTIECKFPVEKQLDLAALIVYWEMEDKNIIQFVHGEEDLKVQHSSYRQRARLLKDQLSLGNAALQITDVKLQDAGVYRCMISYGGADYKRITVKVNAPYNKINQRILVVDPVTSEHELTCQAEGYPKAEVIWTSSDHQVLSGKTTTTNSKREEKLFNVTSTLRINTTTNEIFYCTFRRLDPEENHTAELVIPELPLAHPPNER

Molecule `COc1cc(-c2cncc(-c3cccc(-c4ccc(CN5CC6(CNC(=O)C6)C5)c(OC)n4)c3Cl)c2Cl)ccc1CN1CC2(CNC(=O)C2)C1` [Compound 642, 2-(4-(4-Chloro-5-(2-chloro-3-(6-methoxy-5-((7-oxo-2,6-diazaspiro[3.4]octan-2-yl)methyl)pyridin-2-yl)phenyl)pyridin-3-yl)-2-methoxybenzyl)-2,6-diazaspiro[3.4]octan-7-one] came in with an EC50 on human PD-L1 of 181 nM. The midpoint of inhibition in assay [1], the IC50, lay at 0.19 nM.

With `COc1cc(-c2nccc(-c3cccc(-c4ccc5c(CN(C)C6CCOCC6)cn(C)c5n4)c3Cl)c2Cl)ccc1CNC1CCOCC1` [Compound 635, N-((6-(2-Chloro-3-(3-chloro-2-(3-methoxy-4-(((tetrahydro-2H-pyran-4-yl)amino)methyl)phenyl)pyridin-4-yl)phenyl)-1-methyl-1H-pyrrolo[2,3-b]pyridin-3-yl)methyl)-N-methyltetrahydro-2H-pyran-4-amine], the EC50 at human PD-L1 is 237 nM. Besides, in assay [1], the IC50 was 0.19 nM.

With `COc1nc(-c2cccc(-c3ccnc(-c4cc(OC)c5nc(CN[C@H]6CC[C@H](O)CC6)nn5c4)c3Cl)c2Cl)ccc1CNC(C)C` [Compound 758, (1r,4r)-4-(((6-(3-Chloro-4-(2-chloro-3-(5-((isopropylamino)methyl)-6-methoxypyridin-2-yl)phenyl)pyridin-2-yl)-8-methoxy-[1,2,4]triazolo[1,5-a]pyridin-2-yl)methyl)amino)cyclohexanol], the midpoint of the response on human PD-L1, the EC50, lay at 354 nM. The molecule also registered a 50% inhibitory concentration (IC50) in assay [1] of 0.24 nM.

On human PD-L1, `COc1nc(-c2cccc(-c3ccnc(-c4ccc5c6c(n(C)c5c4)CCNC6)c3Cl)c2Cl)ccc1CNC[C@@H]1CCC(=O)N1` [Compound 141, (S)-5-((((6-(2-chloro-3-(3-chloro-2-(5-methyl-2,3,4,5-tetrahydro-1H-pyrido[4,3-b]indol-7-yl)pyridin-4-yl)phenyl)-2-methoxypyridin-3-yl)methyl)amino)methyl)pyrrolidin-2-one] yielded a concentration giving a half-maximal response (EC50) not below 10000 nM. The molecule further gave a half-inhibitory concentration (IC50) in assay [1] of 0.826 nM.

For `COc1nc(-c2cccc(-c3ccnc(-c4cc(OC)c5nc(CN[C@H]6CC[C@H](O)CC6)nn5c4)c3Cl)c2Cl)ccc1CNC1CCN(C(C)=O)CC1` [Example 595, 1-(4-(((6-(2-Chloro-3-(3-chloro-2-(2-((((1r,4r)-4-hydroxycyclohexyl)amino)methyl)-8-methoxy-[1,2,4]triazolo[1,5-a]pyridin-6-yl)pyridin-4-yl)phenyl)-2-methoxypyridin-3-yl)methyl)amino)piperidin-1-yl)ethan-1-one], on human PD-L1, the EC50 worked out at 211 nM. In assay [1], this molecule yielded a concentration for half-maximal inhibition (IC50) of 0.38 nM.

Take `COc1cc(-c2nccc(-c3cccc(-c4ccc(CNC5CCN(C(C)=O)CC5)c(OC)n4)c3F)c2F)ccc1CNC1CCN(C(C)=O)CC1` [Example 449, 1-(4-(((6-(3-(2-(4-(((1-acetylpiperidin-4-yl)amino)methyl)-3-methoxyphenyl)-3-fluoropyridin-4-yl)-2-fluorophenyl)-2-methoxypyridin-3-yl)methyl)amino)piperidin-1-yl)ethan-1-one]: at human PD-L1, the half-maximal effective concentration (EC50) is not below 10000 nM. The molecule also showed a half-inhibitory concentration (IC50) in assay [1] of 12.9 nM.

The molecule `COc1cc(-c2nccc(-c3cccc(-c4ccc5c(CNC6CCC(F)(F)CC6)cn(C)c5n4)c3Cl)c2Cl)ccc1CNC[C@@H]1CCC(=O)N1` [Compound 96, (S)-5-(((4-(3-chloro-4-(2-chloro-3-(3-(((4,4-difluorocyclohexyl)amino)methyl)-1-methyl-1H-pyrrolo[2,3-b]pyridin-6-yl)phenyl)pyridin-2-yl)-2-methoxybenzyl)amino)methyl)pyrrolidin-2-one] returned a concentration for a half-maximal effect (EC50) on human PD-L1 of 230 nM. This molecule gave an IC50 in assay [1] of 0.6 nM.

The molecule `CNCc1ccc(-c2cccc(-c3ccnc(-c4cc(CNC[C@@H](O)CC(=O)O)cc(OC)c4)c3Cl)c2Cl)nc1OC` [Compound 169, (S)-4-((3-(3-chloro-4-(2-chloro-3-(6-methoxy-5-((methylamino)methyl)pyridine-2-yl)phenyl)pyridine-2-yl)-5-methoxybenzyl)amino)-3-hydroxybutanoic acid] registered an EC50 on human PD-L1 of 632 nM. This molecule also registered an IC50 in assay [1] of 1.85 nM.
